We go through nine compounds from paper PMC7397249, “Properly Substituted Cyclic Bis-(2-bromobenzylidene) Compounds Behaved as Dual p300/CARM1 Inhibitors and Induced Apoptosis in Cancer Cells” (Molecules, 2020).

Where only a bound is given, the exact number is not on record here.

In one experiment the target is T1, SIRT2 (Homo sapiens, UniProt Q8IXJ6).
T1 construct: host or cells: E. coli
As to the kind of experiment: Modified Fluor de Lys fluorescence-based assay, SIRT2. It is filed as biochemical. The conditions noted are these: from 200 μM; p53 379-382 AMC substrate, NAD+. The method, then:
(§1) The newly synthesized compounds 4a–n were tested to determine their effects against acetylation and methylation epigenetic targets. First, 4a–n were screened in vitro against the two HAT enzymes p300 and PCAF. […] To determine the activity against SIRT1 and -2, 4a–n were tested starting from 200 μM solutions using a modified Fluor de Lys fluorescence-based assay with amino acids 379–382 (Arg-His-Lys-Lys(Ac)) of human p53 conjugated with aminomethylcoumarin as substrate and NAD^+ as co-substrate. […] Furthermore, 4a–n were tested against a human five-membered Polycomb repressive complex 2 (PRC2) containing EZH2, embryonic ectoderm development (EED), suppressor of zeste 12 (SUZ12), RbAp48, and adipocyte enhancer-binding protein (AEBP2), to assess their capability to inhibit the catalytic unit EZH2.
(§2) The SIRT inhibition assay was performed using human recombinant SIRT1 and SIRT2 produced in E. coli. Compounds were tested using a modified Fluor de Lys fluorescence-based assay kit based on the method described in the BioMol product sheet (AK-555, AK-556, Milan, Italy). […] The second stage is initiated by the addition of the Developer II (KI176), including nicotinamide (NAM), nicotinamide that stops the SIRT1/2 activity, and the fluorescent signal is produced. The fluorescence was measured on a fluorometric reader (Infinite 200 TECAN, Männedorf, Switzerland) with excitation set at 360 nm and emission detection set at 460 nm.

For a further experiment, the target named is T2, PCAF (Homo sapiens, UniProt Q92831).
T2 construct: PCAF (aa 492–658, 250 nM); purchased Reaction Biology Corporation
As to the kind of experiment: HotSpot HAT activity assay, PCAF. It is filed as biochemical. The conditions noted are these: 10-dose, from 200 μM; histone H3, [acetyl-3H]-acetyl-CoA. The method, then:
as §1
(§3) The effect of tested derivatives on the catalytic activity of p300 and PCAF was determined in a HotSpot HAT activity assay by Reaction Biology Corporation (Malvern, PA, USA) according to the company’s standard operating procedure. In brief, the recombinant catalytic domains of PCAF (aa 492–658, 250 nM) or p300 (aa 1284–1673, 30 nM) were incubated with histone H3 as substrate (5 µM) and [Acetyl-^3H]-Acetyl Coenzyme A (3 µM) as an acetyl donor in reaction buffer (50 mM Tris-HCl (pH 8.0), 50 mM NaCl, 0.1 mM EDTA, 1 mM DTT, 1 mM PMSF, 1% DMSO) for 1 h at 30 °C in the presence or absence of a dose titration of the compounds. The reaction mixture was delivered to filter-paper for detection. IC50 values were analyzed using Excel and GraphPad Prism 6.0 software (GraphPad Software Inc., San Diego, CA, USA). The experiments for p300 were performed in triplicate.

In another experiment the test system is MCF-7 cells. The experiment is described as follows: Cell cycle and apoptosis (sub-G1) analysis by FACS in MCF-7 cells. It counts as cell-based, human. The conditions noted are these: 5 μM, 30 h. The method, then: Compounds 4a–n were tested at 5 μM for 30 h in NB4 […] and U937 AML cells among hematological cancers, and in MCF-7 breast cancer and SH-SY5Y neuroblastoma cells among solid cancers, to determine their effects in cell cycle and apoptosis induction.
In the same cell lines, the induction of apoptosis has been evaluated through the percentage of the sub-G1 peaks.
For colorimetric exclusion, the cells (2 × 10^5 cells/mL) were plated in multiwells in triplicate. After stimulations at different times and concentrations, cells were diluted in the ratio 1:1 in Trypan Blue (Sigma) and counted with an optical microscope. For cell cycle analyses, cells were plated (2 × 10^5 cells/mL) and were harvested, centrifuged at 1200 rpm for 5 min and resuspended in 500 μL of a hypotonic solution containing 1× PBS, Sodium Citrate 0.1%, 0.1% NP-40, RNAase A and […] Propidium Iodide (PI). After 30 min at room temperature (RT) in the dark, samples were acquired by FACS-Calibur (BD Bioscences, San Jose, CA, USA) using CellQuest software (BD Biosciences). The percentage in different phases of the cell cycle was determined by ModFit LT V3 software (Verity). All experiments were performed in triplicate. Cell death was measured as percentage of cells in sub-G1 phase as in [30].
In general terms: A flow cytometer gives signals particle by particle.

For a further experiment, the target named is T3, SIRT1 (Homo sapiens, UniProt Q96EB6).
T3 construct: host or cells: E. coli
The experiment is described as follows: Modified Fluor de Lys fluorescence-based assay, SIRT1. It counts as biochemical. The conditions noted are these: from 200 μM; p53 379-382 AMC substrate, NAD+. As for the experimental part:
as §1, §2

For a further experiment, the target named is T4, p300 (Homo sapiens, UniProt Q09472).
T4 construct: p300 (aa 1284–1673, 30 nM); purchased Reaction Biology Corporation
T4 sequence (Q09472 1284-1673): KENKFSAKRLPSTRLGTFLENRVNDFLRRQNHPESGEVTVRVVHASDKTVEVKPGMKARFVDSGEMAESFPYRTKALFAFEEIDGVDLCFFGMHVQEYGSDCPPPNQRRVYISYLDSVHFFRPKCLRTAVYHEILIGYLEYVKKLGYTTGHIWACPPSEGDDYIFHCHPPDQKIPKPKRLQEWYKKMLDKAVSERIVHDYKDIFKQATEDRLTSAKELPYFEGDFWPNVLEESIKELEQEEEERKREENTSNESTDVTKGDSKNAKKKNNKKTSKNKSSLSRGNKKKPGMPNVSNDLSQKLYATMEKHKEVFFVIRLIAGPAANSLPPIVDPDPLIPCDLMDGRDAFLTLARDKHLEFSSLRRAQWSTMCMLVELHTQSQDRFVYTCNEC
The experiment is described as follows: HotSpot HAT activity assay, p300. It is filed as biochemical. As to conditions: 10-dose, triplicate, from 200 μM; histone H3, [acetyl-3H]-acetyl-CoA. As for the experimental part: as §1, §3

T3 sequence (Q96EB6 whole entry): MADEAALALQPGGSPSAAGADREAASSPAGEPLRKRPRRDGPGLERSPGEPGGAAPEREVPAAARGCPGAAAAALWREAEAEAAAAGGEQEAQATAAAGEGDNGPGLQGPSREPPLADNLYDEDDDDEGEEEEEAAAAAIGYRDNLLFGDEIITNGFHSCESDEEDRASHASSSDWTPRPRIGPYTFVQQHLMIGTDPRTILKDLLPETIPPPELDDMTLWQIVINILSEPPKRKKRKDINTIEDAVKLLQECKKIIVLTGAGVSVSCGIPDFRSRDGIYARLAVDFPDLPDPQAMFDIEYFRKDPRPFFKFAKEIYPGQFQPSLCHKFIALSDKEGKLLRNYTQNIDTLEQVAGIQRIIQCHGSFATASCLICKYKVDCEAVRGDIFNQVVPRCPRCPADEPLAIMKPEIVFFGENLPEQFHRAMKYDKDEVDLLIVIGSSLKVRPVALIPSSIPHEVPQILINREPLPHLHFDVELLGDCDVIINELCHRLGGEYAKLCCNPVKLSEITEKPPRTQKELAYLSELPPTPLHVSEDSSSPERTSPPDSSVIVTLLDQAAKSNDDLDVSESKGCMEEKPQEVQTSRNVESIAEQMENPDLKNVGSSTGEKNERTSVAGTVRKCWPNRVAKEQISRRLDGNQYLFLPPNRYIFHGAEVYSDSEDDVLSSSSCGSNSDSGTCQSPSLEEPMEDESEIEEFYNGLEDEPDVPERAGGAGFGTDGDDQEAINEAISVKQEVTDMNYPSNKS
T2 sequence (Q92831 492-658): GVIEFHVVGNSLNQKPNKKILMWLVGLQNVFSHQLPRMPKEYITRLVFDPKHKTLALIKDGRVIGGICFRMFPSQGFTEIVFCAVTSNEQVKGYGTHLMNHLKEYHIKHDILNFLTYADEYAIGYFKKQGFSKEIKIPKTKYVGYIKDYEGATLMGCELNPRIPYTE
T1 sequence (Q8IXJ6 whole entry): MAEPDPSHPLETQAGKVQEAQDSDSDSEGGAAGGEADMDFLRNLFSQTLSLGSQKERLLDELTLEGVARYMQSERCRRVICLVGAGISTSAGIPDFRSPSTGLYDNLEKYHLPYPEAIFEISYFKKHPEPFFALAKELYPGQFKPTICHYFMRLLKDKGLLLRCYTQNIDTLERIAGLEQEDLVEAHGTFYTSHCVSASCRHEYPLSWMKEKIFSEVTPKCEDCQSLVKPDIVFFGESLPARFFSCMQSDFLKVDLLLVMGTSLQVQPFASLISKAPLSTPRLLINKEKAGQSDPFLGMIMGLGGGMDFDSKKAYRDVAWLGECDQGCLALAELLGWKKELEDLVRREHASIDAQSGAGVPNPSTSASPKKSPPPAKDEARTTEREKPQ

The IC50 is the concentration that gives 50% inhibition. As for `O=C1/C(=C/c2ccccc2Br)CN(Cc2ccccc2)C/C1=C\c1ccccc1Br` [Compound 4e, 1-benzyl-3,5-bis((E)-2-bromobenzylidene)piperidin-4-one], the IC50 against SIRT2 is > 200 µM; against PCAF, > 200 µM; against SIRT1, > 200 µM; against p300 it was 2.19 ± 0.77 µM. Moreover, the “cell cycle: block in G1/S phase with almost total absence of cells in the G2/M phase” value (“cell cycle: block … in the G2/M phase” for short) in the experiment on MCF-7 cells is on record as “almost total absence of cells”.
Take `O=C1/C(=C/c2ccccc2Br)CN(CCc2ccccc2)C/C1=C\c1ccccc1Br` [Compound 4f, 3,5-Bis((E)-2-bromobenzylidene)-1-phenethylpiperidin-4-one]: the IC50 against SIRT2 is > 200 µM; at PCAF, > 200 µM; against SIRT1, > 200 µM; at p300 it was 30.2 ± 2.71 µM.
On to `O=C1/C(=C/c2ccccc2Br)CN(CCCc2ccccc2)C/C1=C\c1ccccc1Br` [Compound 4g, 3,5-Bis((E)-2-bromobenzylidene)-1-(3-phenylpropyl)piperidin-4-one], for which the half-maximal inhibitory concentration (IC50) is > 200 µM at SIRT2, > 200 µM against PCAF, > 200 µM at SIRT1 and 40.7 ± 2.39 µM on p300.
Turning to `O=C1/C(=C/c2ccccc2Br)CN(CC(=O)c2ccccc2)C/C1=C\c1ccccc1Br` [Compound 4h, 3,5-Bis((E)-2-bromobenzylidene)-1-(2-oxo-2-phenylethyl)piperidin-4-one], the IC50 at SIRT2 was > 200 µM; against PCAF it was > 200 µM; at SIRT1, > 200 µM; against p300, 1.03 ± 0.22 µM. Also, in the experiment on MCF-7 cells, the “induction of apoptosis, % sub-G1 peaks” value was “around 25%”.
Regarding `O=C1/C(=C/c2ccccc2Br)CN(CCCC(=O)c2ccccc2)C/C1=C\c1ccccc1Br` [Compound 4j, 3,5-Bis((E)-2-bromobenzylidene)-1-(4-oxo-4-phenylbutyl)piperidin-4-one], the IC50 on SIRT2 is > 200 µM; at PCAF, > 200 µM; against SIRT1, > 200 µM; against p300, 2.13 ± 1.35 µM. The “cell cycle: block … in the G2/M phase” value in the experiment with MCF-7 cells is reported as “almost total absence of cells”.
Consider `O=C1/C(=C/c2ccccc2Br)CN(C(=O)c2ccccc2)C/C1=C\c1ccccc1Br` [Compound 4k, 1-Benzoyl-3,5-bis((E)-2-bromobenzylidene)piperidin-4-one], for which the IC50 on SIRT2 was > 200 µM; against PCAF, > 200 µM; against SIRT1, > 200 µM; against p300, 2.09 ± 0.79 µM. Moreover, the “cell cycle: block in G1/S phase with almost total absence of cells in the S phase” value (“cell cycle: block in G1/S phase … in the S phase” below) in the experiment on MCF-7 cells was “almost total absence of cells”.
In the case of `O=C1/C(=C/c2ccccc2Br)CN(C(=O)Cc2ccccc2)C/C1=C\c1ccccc1Br` [Compound 4l, 3,5-Bis((E)-2-bromobenzylidene)-1-(2-phenylacetyl)piperidin-4-one], the IC50 against SIRT2 is > 200 µM; at PCAF it was > 200 µM; at SIRT1, > 200 µM; against p300, 0.45 ± 0.03 µM. In addition, the “cell cycle: block in G1/S phase … in the S phase” value with MCF-7 cells was “almost total absence of cells”.
As for `O=C1/C(=C/c2ccccc2Br)CN(C(=O)CCc2ccccc2)C/C1=C\c1ccccc1Br` [Compound 4m, 3,5-Bis((E)-2-bromobenzylidene)-1-(3-phenylpropanoyl)piperidin-4-one], the IC50 is > 200 µM on SIRT2, > 200 µM against PCAF, > 200 µM against SIRT1 and 0.46 ± 0.1 µM against p300. In addition, the “cell cycle: block … in the G2/M phase” value in the experiment with MCF-7 cells is “almost total absence of cells”.
On to `O=C1/C(=C/c2ccccc2Br)CN(C(=O)C=Cc2ccccc2)C/C1=C\c1ccccc1Br` [Compound 4n, 3,5-Bis((E)-2-bromobenzylidene)-1-cinnamoylpiperidin-4-one], for which the IC50 is > 200 µM on SIRT2, > 200 µM against PCAF, > 200 µM against SIRT1 and 1.23 ± 0.29 µM against p300. The “cell cycle: block … in the G2/M phase” value in the experiment on MCF-7 cells is “almost total absence of cells”. The “cell cycle: block in G1/S phase … in the S phase” value in the experiment with MCF-7 cells is “almost total absence of cells”.
